Measurements: US20070128217A1 (priority 2003, published 2007)

What was measured:
[1] = test system: antibodies in sera from SARS patients (sera 1a, 1b, 2, 6, 37, 62, London, SARS-yellow, SARS-green); type: binding, human; parameters: Binding of serum 6 to linear peptides of protein X1 of SARS-CoV Urbani / Binding of serum 37 to linear peptides of protein X1 of SARS-CoV Urbani / Binding of serum 6 to looped/cyclic peptide (PEPSCAN-ELISA) / Binding of serum 37 to looped/cyclic peptide (PEPSCAN-ELISA) / Binding of serum 37 to looped/cyclic peptides of protein X1 of SARS-CoV Urbani / Binding of serum 6 to linear peptides of protein X2 / Binding of serum 37 to linear peptides of protein X2 / Binding of serum 37 to looped/cyclic peptides of protein X2 of SARS-CoV Urbani / Binding of serum 6 to linear peptides of protein M of SARS-CoV Urbani / Binding of serum 37 to linear peptides of protein M of SARS-CoV Urbani / Binding of serum 6 to looped/cyclic peptides of protein M of SARS-CoV Urbani / Binding of serum 37 to looped/cyclic peptides of protein M of SARS-CoV Urbani / Binding of serum 6 to linear peptides of protein X3 of SARS-CoV Urbani / Binding of serum 37 to linear peptides of protein X3 of SARS-CoV Urbani / Binding of serum 37 to looped/cyclic peptides of protein X3 of SARS-CoV Urbani / Binding of serum 6 to linear peptides of protein X4 of SARS-CoV Urbani / Binding of serum 37 to linear peptides of protein X4 of SARS-CoV Urbani / Binding of serum 37 to looped/cyclic peptides of protein X4 of SARS-CoV Urbani / Binding of serum 6 to linear peptides of protein X5 of SARS-CoV Urbani / Binding of serum 37 to linear peptides of protein X5 of SARS-CoV Urbani / Binding of serum 37 to looped/cyclic peptides of protein X5 of SARS-CoV Urbani / Binding of serum 6 to linear peptides of protein N of SARS-CoV Urbani / Binding of serum 37 to linear peptides of protein N of SARS-CoV Urbani / Binding of serum 6 to linear peptide (PEPSCAN-ELISA) / Binding of serum 1a to looped/cyclic peptides of protein N of SARS-CoV Urbani / Binding of serum 1b to looped/cyclic peptides of protein N of SARS-CoV Urbani / Binding of serum 2 to looped/cyclic peptides of protein N of SARS-CoV Urbani / Binding of serum 6 to looped/cyclic peptides of protein N of SARS-CoV Urbani / Binding of serum 37 to looped/cyclic peptides of protein N of SARS-CoV Urbani / Binding of serum 62 to looped/cyclic peptides of protein N of SARS-CoV Urbani / Binding of serum London to looped/cyclic peptides of protein N of SARS-CoV Urbani / Binding of serum SARS-green to looped/cyclic peptides of protein N of SARS-CoV Urbani: unit not given here
[2] = test system: control sera (pooled serum of ten healthy LUMC hospital workers; commercial negative donor pooled serum from the Dutch bloodbank); type: binding, human; parameters: Binding of Control serum LUMC to linear peptides / Binding of Control serum Blood-bank to linear peptides / Binding of Control serum LUMC to looped peptides / Binding of Control Serum Blood-Bank to Looped peptides / Binding of Control serum LUMC to linear peptides of the protein M of SARS-CoV Urbani / Binding of Control serum Blood-bank to linear peptides of the protein M of SARS-CoV Urbani / Binding of Control serum LUMC to looped peptides of the protein M of SARS-CoV Urbani / Binding of Control Serum Blood-Bank to Looped peptides of the protein M of SARS-CoV Urbani: unit not given here
[3] = test system: rabbit serum obtained by immunizing a rabbit with the SARS-CoV strain Frankfurt 1; type: binding; parameters: Binding of a rabbit serum to linear peptides / Binding of a rabbit serum to looped peptides / Rabbit serum linear peptides / Rabbit serum looped peptides / Binding of a rabbit serum to linear peptides of protein N of SARS-CoV Urbani (Rabbit serum linear peptides) / Binding of a rabbit serum to looped/cyclic peptides of protein N of SARS-CoV Urbani (Rabbit serum looped peptides): unit not given here
[4] = test system: recombinant human anti-SARS-CoV antibody 03-018; type: binding; parameters: Binding of antibody 03-018 to linear peptides of the N protein of SARS-CoV Urbani / Binding of antibody 03-018 to looped/cyclic peptides of the N protein of SARS-CoV Urbani: unit not given here

| Sequence | Binding of serum 1a to linear peptides of protein N of SARS-CoV Urbani [1] | Binding of serum 1a to looped/cyclic peptides of protein N of SARS-CoV Urbani [1] | Binding of serum 1b to linear peptides of protein N of SARS-CoV Urbani [1] | Binding of serum 1b to looped/cyclic peptides of protein N of SARS-CoV Urbani [1] | Binding of serum 2 to linear peptides of protein N of SARS-CoV Urbani [1] | Binding of serum 2 to looped/cyclic peptides of protein N of SARS-CoV Urbani [1] | Binding of serum 6 to linear peptides of protein N of SARS-CoV Urbani [1] | Binding of serum 6 to looped/cyclic peptides of protein N of SARS-CoV Urbani [1] | Binding of serum 37 to linear peptides of protein N of SARS-CoV Urbani [1] | Binding of serum 37 to looped/cyclic peptides of protein N of SARS-CoV Urbani [1] | Binding of serum 62 to linear peptides of protein N of SARS-CoV Urbani [1] | Binding of serum 62 to looped/cyclic peptides of protein N of SARS-CoV Urbani [1] | Binding of serum London to linear peptides of protein N of SARS-CoV Urbani [1] | Binding of serum London to looped/cyclic peptides of protein N of SARS-CoV Urbani [1] | Binding of serum SARS-green to linear peptides of protein N of SARS-CoV Urbani [1] | Binding of serum SARS-green to looped/cyclic peptides of protein N of SARS-CoV Urbani [1] | Binding of serum SARS-yellow to linear peptides of protein N of SARS-CoV Urbani [1] | Binding of serum SARS-yellow to looped/cyclic peptides of protein N of SARS-CoV Urbani [1] | Binding of a rabbit serum to linear peptides of protein N of SARS-CoV Urbani (Rabbit serum linear peptides) [3] | Binding of a rabbit serum to looped/cyclic peptides of protein N of SARS-CoV Urbani (Rabbit serum looped peptides) [3] | also measured |
| --- | --- | --- | --- | --- | --- | --- | --- | --- | --- | --- | --- | --- | --- | --- | --- | --- | --- | --- | --- | --- | --- |
| RGGDGKMKELSPRWY | 0.2 | 0.3 | 0.1 | 0.2 | 0.2 | 0.4 | 0.2 | 0.3 | 0.7 | 0.5 | 0.6 | 0.4 | 0.5 | 0.4 | 0.3 | 0.3 | 0.6 | 0.4 | 0.1 | 0.4 | Binding of Control Serum Blood-Bank to Looped peptides [2]: 0.6; Binding of Control serum Blood-bank to linear peptides [2]: 0.6; Binding of Control serum LUMC to linear peptides [2]: 0.6; Binding of Control serum LUMC to looped peptides [2]: 0.6; Binding of antibody 03-018 to linear peptides of the N protein of SARS-CoV Urbani [4]: 0.1; Binding of antibody 03-018 to looped/cyclic peptides of the N protein of SARS-CoV Urbani [4]: 0.2 |
| AADMDDFSRQLQNSM | 0.3 | 0.3 | 0.2 | 0.2 | 0.2 | 0.3 | 1.2 | 1.6 | 0.7 | 0.5 | 0.6 | 0.3 | 0.7 | 0.2 | 0.4 | 0.2 | 0.7 | 0.2 | 0.2 | 0.3 | Control Serum Blood-Bank Looped peptides [2]: 0.4; Control serum Blood-bank linear peptides [2]: 0.8; Control serum LUMC linear peptides [2]: 0.7; Control serum LUMC looped peptides [2]: 0.3; Binding of antibody 03-018 to linear peptides of the N protein of SARS-CoV Urbani [4]: 0.2; Binding of antibody 03-018 to looped/cyclic peptides of the N protein of SARS-CoV Urbani [4]: 0.2 |
| DMDDFSRQLQNSMSG | 0.2 | 0.3 | 0.2 | 0.1 | 0.2 | 0.3 | 0.3 | 0.0 | 0.8 | 0.4 | 0.7 | 0.2 | 0.7 | 0.2 | 0.3 | 0.0 | 0.7 | 0.2 | 0.2 | 0.4 | Control Serum Blood-Bank Looped peptides [2]: 0.4; Control serum Blood-bank linear peptides [2]: 0.8; Control serum LUMC linear peptides [2]: 0.6; Control serum LUMC looped peptides [2]: 0.3; Binding of antibody 03-018 to linear peptides of the N protein of SARS-CoV Urbani [4]: 0.1; Binding of antibody 03-018 to looped/cyclic peptides of the N protein of SARS-CoV Urbani [4]: 0.2 |
| GALNTPKDHIGTRNP | 0.3 | 0.2 | 0.1 | 0.1 | 0.2 | 0.5 | 0.2 | 0.2 | 0.7 | 0.5 | 0.7 | 0.3 | 0.5 | 0.4 | 0.4 | 0.2 | 0.7 | 0.2 | 0.2 | 0.0 | Binding of Control Serum Blood-Bank to Looped peptides [2]: 0.5; Binding of Control serum Blood-bank to linear peptides [2]: 0.7; Binding of Control serum LUMC to linear peptides [2]: 0.6; Binding of Control serum LUMC to looped peptides [2]: 0.4; Binding of antibody 03-018 to linear peptides of the N protein of SARS-CoV Urbani [4]: 0.1; Binding of antibody 03-018 to looped/cyclic peptides of the N protein of SARS-CoV Urbani [4]: 0.2 |
